Source: BindingDB's records for doi:10.1021/jm00144a035 (1982)

Target: Choline O-acetyltransferase (squid)
Test: Inhibition of choline acetyltransferase isolated from squid head ganglia

Nc1c(S(=O)(=O)O)cc(Nc2ccc(Nc3nc(Nc4ccc(S(=O)(=O)O)cc4)nc(=O)[nH]3)c(S(=O)(=O)O)c2)c2c1C(=O)c1ccccc1C2=O [1-Amino-4-{4-[4-hydroxy-6-(4-sulfo-phenylamino)-[1,3,5]triazin-2-ylamino]-3-sulfo-phenylamino}-9,10-dioxo-9,10-dihydro-anthracene-2-sulfonic acid]
Ki: 1800 nM

CSSCCNC(=O)CCNC(=O)C(O)C(C)(C)COP(=O)(O)OP(=O)(O)OC[C@H]1O[C@@H](n2cnc3c(N)ncnc32)[C@H](O)[C@@H]1OP(=O)(O)O (some centres not stated) [Methyldisulfanyl analogue of coenzyme A]
Ki: 2300 nM
